In ChEMBL document CHEMBL3885881, “DrugMatrix”:

Columns and labels:
[1] = species on record: Rattus norvegicus; experiment: DrugMatrix - Regimen: Daily Repeat; type: toxicity, organism-based, Sprague-Dawley; set-up: regimen Daily Repeat, gender Male, age 6-8 weeks; conditions: in vivo, po, 200 mg/kg, […], route oral GAVAGE, dose level High, time 14 day, vehicle .5 % CMC
[2] = species on record: Rattus norvegicus; type: toxicity, organism-based, Sprague-Dawley; conditions: in vivo, po, 200 mg/kg, 24 h, route oral GAVAGE, dose level High, time 1 day, vehicle .5 % CMC
Description: DrugMatrix - Regimen: Single

Structure (SMILES): CC(C)=C1CC[C@@H](C)CC1=O [PULEGONE]
- ABSOLUTE BASOPHIL ([1]; tissue Blood): 0 CELLS/uL
- ABSOLUTE EOSINOPHIL ([1]; tissue Blood): 211.4 CELLS/uL
- ABSOLUTE LYMPHOCYTE ([1]; tissue Blood): 21257.2 CELLS/uL
- ABSOLUTE MONOCYTE ([1]; tissue Blood): 665.8 CELLS/uL
- ABSOLUTE SEGMENTED NEUTROPHIL ([1]; tissue Blood): 3705.6 CELLS/uL
- BASOPHIL ([1]; tissue Blood): 0%
- EOSINOPHIL ([1]; tissue Blood): 0.8%
- ERYTHROCYTE COUNT ([1]; tissue Blood): 6.34 x10E6/uL
- HEMATOCRIT ([1]; tissue Blood): 37.3%
- HEMOGLOBIN ([1]; tissue Blood): 13.88 G/DL
- LEUKOCYTE COUNT ([1]; tissue Blood): 25.84 x10E3/uL
- LYMPHOCYTE ([1]; tissue Blood): 82.2%
- MEAN CORPUSCULAR HEMOGLOBIN ([1]; tissue Blood): 21.94 pg
- MEAN CORPUSCULAR HEMOGLOBIN CONCENTRATION ([1]; tissue Blood): 37.2 G/DL
- MEAN CORPUSCULAR VOLUME ([1]; tissue Blood): 58.94 fL
- MONOCYTE ([1]; tissue Blood): 2.6%
- NEUTROPHIL ([1]; tissue Blood): 14.4%
- NUCLEATED RED BLOOD CELLS ([1]; tissue Blood): 0 /100WBC
- PLATELET COUNT ([1]; tissue Blood): 1150.2 x10E3/uL
- ALANINE AMINOTRANSFERASE ([1]; tissue Plasma): 78.8 u/L
- ALBUMIN ([1]; tissue Plasma): 4.54 G/DL
- ALKALINE PHOSPHATASE ([1]; tissue Plasma): 518 u/L
- ASPARTATE AMINOTRANSFERASE ([1]; tissue Plasma): 93.8 u/L
- BLOOD UREA NITROGEN ([1]; tissue Plasma): 14.2 mg/dL
- CARBON DIOXIDE ([1]; tissue Plasma): 27.4 mmol/L
- CHLORIDE ([1]; tissue Plasma): 102.2 MEQ/L
- CHOLESTEROL ([1]; tissue Plasma): 65 mg/dL
- CREATININE ([1]; tissue Plasma): 0.18 mg/dL
- GLUCOSE ([1]; tissue Plasma): 128.2 mg/dL
- LACTATE DEHYDROGENASE ([1]; tissue Plasma): 147 u/L
- LIPASE ([1]; tissue Plasma): 11 u/L
- PHOSPHORUS ([1]; tissue Plasma): 12.52 mg/dL
- POTASSIUM ([1]; tissue Plasma): 7 MEQ/L
- SODIUM ([1]; tissue Plasma): 148.6 MEQ/L
- TOTAL BILIRUBIN ([1]; tissue Plasma): 0.32 mg/dL
- TOTAL PROTEIN ([1]; tissue Plasma): 6.52 G/DL
- URIC ACID ([1]; tissue Plasma): 2.08 mg/dL
- ABSOLUTE EOSINOPHIL ([2]; tissue Blood): 46 CELLS/uL
- ABSOLUTE LYMPHOCYTE ([2]; tissue Blood): 13023.67 CELLS/uL
- ABSOLUTE MONOCYTE ([2]; tissue Blood): 245.33 CELLS/uL
- ABSOLUTE SEGMENTED NEUTROPHIL ([2]; tissue Blood): 1251.67 CELLS/uL
- BASOPHIL ([2]; tissue Blood): 0%
- EOSINOPHIL ([2]; tissue Blood): 0.33%
- ERYTHROCYTE COUNT ([2]; tissue Blood): 5.98 x10E6/uL
- HEMATOCRIT ([2]; tissue Blood): 37.73%
- HEMOGLOBIN ([2]; tissue Blood): 13.9 G/DL
- LEUKOCYTE COUNT ([2]; tissue Blood): 14.57 x10E3/uL
- LYMPHOCYTE ([2]; tissue Blood): 90%
- MEAN CORPUSCULAR HEMOGLOBIN ([2]; tissue Blood): 23.43 pg
- MEAN CORPUSCULAR HEMOGLOBIN CONCENTRATION ([2]; tissue Blood): 37 G/DL
- MEAN CORPUSCULAR VOLUME ([2]; tissue Blood): 63.4 fL
- MONOCYTE ([2]; tissue Blood): 1.67%
- NEUTROPHIL ([2]; tissue Blood): 8%
- NUCLEATED RED BLOOD CELLS ([2]; tissue Blood): 0 /100WBC
- PLATELET COUNT ([2]; tissue Blood): 961.67 x10E3/uL
- ALANINE AMINOTRANSFERASE ([2]; tissue Plasma): 52.67 u/L
- ALBUMIN ([2]; tissue Plasma): 4.3 G/DL
- ALKALINE PHOSPHATASE ([2]; tissue Plasma): 476.33 u/L
- ASPARTATE AMINOTRANSFERASE ([2]; tissue Plasma): 110 u/L
- BLOOD UREA NITROGEN ([2]; tissue Plasma): 12.33 mg/dL
- CARBON DIOXIDE ([2]; tissue Plasma): 23.67 mmol/L
- CHLORIDE ([2]; tissue Plasma): 103.5 MEQ/L
- CHOLESTEROL ([2]; tissue Plasma): 77.67 mg/dL
- CREATININE ([2]; tissue Plasma): 0.14 mg/dL
- GLUCOSE ([2]; tissue Plasma): 133.33 mg/dL
- LACTATE DEHYDROGENASE ([2]; tissue Plasma): 244 u/L
- LIPASE ([2]; tissue Plasma): 10 u/L
- PHOSPHORUS ([2]; tissue Plasma): 12.8 mg/dL
- POTASSIUM ([2]; tissue Plasma): 6.49 MEQ/L
- SODIUM ([2]; tissue Plasma): 142.65 MEQ/L
- TOTAL BILIRUBIN ([2]; tissue Plasma): 0.23 mg/dL
- TOTAL PROTEIN ([2]; tissue Plasma): 6 G/DL
- URIC ACID ([2]; tissue Plasma): 1.8 mg/dL
